Some results are limits rather than exact numbers.

For one experiment, the target named is T1, α4β7 (Homo sapiens, UniProt P13612+P26010).
T1 construct: endogenous in cells; host or cells: RPMI 8866 cells
T1 sequence (P13612 34-1032): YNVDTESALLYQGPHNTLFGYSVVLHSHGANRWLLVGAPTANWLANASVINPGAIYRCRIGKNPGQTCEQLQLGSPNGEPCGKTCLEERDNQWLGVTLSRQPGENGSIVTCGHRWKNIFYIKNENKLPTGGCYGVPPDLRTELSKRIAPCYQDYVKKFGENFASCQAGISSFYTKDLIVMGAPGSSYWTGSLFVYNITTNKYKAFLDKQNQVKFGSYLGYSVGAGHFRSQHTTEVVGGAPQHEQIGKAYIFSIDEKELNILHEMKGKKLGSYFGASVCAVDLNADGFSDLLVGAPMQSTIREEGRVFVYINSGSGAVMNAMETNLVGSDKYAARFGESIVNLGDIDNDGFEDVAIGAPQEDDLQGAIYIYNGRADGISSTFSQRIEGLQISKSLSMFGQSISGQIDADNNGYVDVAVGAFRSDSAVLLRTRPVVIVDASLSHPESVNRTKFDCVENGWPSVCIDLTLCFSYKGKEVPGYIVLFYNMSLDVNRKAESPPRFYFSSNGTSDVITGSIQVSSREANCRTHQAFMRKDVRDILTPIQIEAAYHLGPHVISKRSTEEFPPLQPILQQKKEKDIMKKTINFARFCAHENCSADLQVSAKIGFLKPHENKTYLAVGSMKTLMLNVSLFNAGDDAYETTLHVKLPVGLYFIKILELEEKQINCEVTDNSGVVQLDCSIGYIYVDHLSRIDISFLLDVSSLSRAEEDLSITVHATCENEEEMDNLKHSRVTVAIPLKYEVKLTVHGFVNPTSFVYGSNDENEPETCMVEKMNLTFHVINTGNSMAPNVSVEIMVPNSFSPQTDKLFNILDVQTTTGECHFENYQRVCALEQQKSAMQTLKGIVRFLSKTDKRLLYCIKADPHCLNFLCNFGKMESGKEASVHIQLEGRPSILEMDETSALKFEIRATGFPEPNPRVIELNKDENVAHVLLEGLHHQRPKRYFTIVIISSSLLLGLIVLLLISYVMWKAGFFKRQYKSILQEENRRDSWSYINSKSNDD
T1 sequence (P26010 20-798): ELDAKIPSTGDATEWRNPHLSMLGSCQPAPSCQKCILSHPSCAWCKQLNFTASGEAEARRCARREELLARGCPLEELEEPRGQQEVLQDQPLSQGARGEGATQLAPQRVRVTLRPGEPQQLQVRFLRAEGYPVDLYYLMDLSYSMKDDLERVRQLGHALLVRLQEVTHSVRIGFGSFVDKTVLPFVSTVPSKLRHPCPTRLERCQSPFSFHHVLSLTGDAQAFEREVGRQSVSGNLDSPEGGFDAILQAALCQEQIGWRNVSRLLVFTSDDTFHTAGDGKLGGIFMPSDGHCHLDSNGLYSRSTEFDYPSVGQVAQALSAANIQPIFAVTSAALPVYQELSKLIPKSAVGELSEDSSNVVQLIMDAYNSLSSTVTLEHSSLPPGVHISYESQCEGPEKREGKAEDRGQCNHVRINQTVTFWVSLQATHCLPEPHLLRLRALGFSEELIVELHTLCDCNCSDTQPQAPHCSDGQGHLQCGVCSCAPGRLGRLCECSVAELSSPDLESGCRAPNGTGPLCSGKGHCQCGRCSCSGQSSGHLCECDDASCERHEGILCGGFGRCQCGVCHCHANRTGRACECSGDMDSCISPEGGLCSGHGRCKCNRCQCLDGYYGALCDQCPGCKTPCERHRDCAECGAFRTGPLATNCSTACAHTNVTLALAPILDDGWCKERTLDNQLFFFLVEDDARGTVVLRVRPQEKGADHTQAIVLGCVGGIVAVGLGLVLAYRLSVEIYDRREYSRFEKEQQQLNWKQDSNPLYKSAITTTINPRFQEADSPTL
As to the kind of experiment: Cell-based MAdCAM-1 ligand binding assay (LBA) on RPMI 8866 cells (Example 6). As to conditions: MAdCAM-1-Fc Dylight 650, 3 mM manganese chloride, flow cytometry, Table 3, read-out: LB Assay (Example 6). From the text:
Compounds of Formula (I) were further evaluated using a Ligand binding assay (LBA) to examine compound potency of free ligand binding to receptors expressed on cells. The MAdCAM ligand binding assay uses flow cytometry to measure the binding of fluorescently-labeled MAdCAM-1-Fc to RPMI 8866 cells in the presence of Mn++. This assay assesses the binding of compounds to native full-length receptors on the cell surface. […] Ligand binding assays (LBA) are used to examine compound potency and selectivity of free ligand binding to receptors expressed on cells.
Three in vitro assays were used to examine the α4β7 mechanistic process used by cells: 1) ligand:receptor affinity, 2) the avidity of those interactions on a cell's surface, and 3) how those interactions fare under an imposing force. In Example 5, a Fluorescence Polarization (FP) assay is used to measure compound activity through binding competition with the fluorescein-labeled peptide. In Example 6, the potency of compounds against α4β7 is measured in the cell-based ligand binding assay (LBA), using RPMI 8866 cells incubated with the compound samples in competition with soluble MAdCAM-1 ligand. In Example 7, activity of compounds is evaluated in a cell adhesion assay that mechanistically tests what occurs in vivo when trafficking cells utilize α4β7 to adhere to MAdCAM-1 expressing HEVs of the gut during the extravasation process. In the cell adhesion assay of Example 7, a MAdCAMI1-(Fc) is coated on plastic, and α4β7 expressing cells (RPMI-8866) are allowed to adhere to the coated surface in the presence of the test compounds. Next, the force of washing with buffer is applied to cells thereby testing the strength of that adhesion. Unattached cells are removed and the remaining adherent cells are quantified.
5 ul of 33 nM MAdCAM-1-Fc fluorescently labeled with Dylight 650 in 50 mM HEPES pH 7.3, 150 mM sodium chloride, and 1% bovine serum albumin was added to the cells. The samples were incubated for 45 minutes at room temperature, fixed with 0.8% formaldehyde for 30 minutes at room temperature, and washed with 50 mM Tris pH 7.5, 150 mM NaCl, 1 mM EDTA, and 1% bovine serum albumin. Fluorescence intensity for each cell was measured via flow cytometry. Dead cells were excluded from further analysis based on staining with the 780 fixable viability dye. Median fluorescence intensity for Dylight 650 was determined for each sample and concentration-response curves were analyzed for IC50 values using 4-parameter non-linear regression analysis.
With `Cc1cc(-c2c(C)ccc(F)c2C)cc([C@H](CC(=O)O)NC(=O)C(CC(C)C)n2cc(CCN3CCC3)c(C(F)(F)F)cc2=O)c1F` (single isomer, unassigned) [AF-P2], the IC50 was less than 10 nM.

Regarding `COc1ccc(C)c(-c2cc(C)c(F)c([C@H](CC(=O)O)NC(=O)C(CC(C)C)n3cc(CCN4CCC4)c(C(F)(F)F)cc3=O)c2)c1C` (single isomer, unassigned) [AG-P2], the IC50 is less than 10 nM.

As for `Cc1cc(-c2c(C)cccc2C)cc([C@H](CC(=O)O)NC(=O)C(CC(C)C)n2cc(CCN3CC[C@@H](F)C3)cc(F)c2=O)c1F` (single isomer, unassigned) [AU-P2], the IC50 is less than 10 nM.

The same experiment, now with this note: MAdCAM-1-Fc Dylight 650, 3 mM manganese chloride, flow cytometry, Table 4 comparative compounds, read-out: LB Assay (Example 6).
For `Cc1cccc(C)c1-c1cccc([C@H](CC(=O)O)NC(=O)[C@H](CC(C)C)n2cc(CCN(C)C)ccc2=O)c1`, the IC50 was less than 10 nM.

Turning to `Cc1cccc(C)c1-c1cccc([C@H](CC(=O)O)NC(=O)[C@H](CC(C)C)n2ccc(CCN(C)C)cc2=O)c1`, the IC50 was less than 10 nM.

In the case of `Cc1cccc(C)c1-c1cccc([C@H](CC(=O)O)NC(=O)[C@H](CC(C)C)n2cccc(CCN(C)C)c2=O)c1`, the IC50 was 10 to 500 nM.

`Cc1cccc(C)c1-c1cccc([C@H](CC(=O)O)NC(=O)[C@H](CC(C)C)n2cc(CN3CC[C@@H](F)C3)ccc2=O)c1`: the IC50 was less than 10 nM.

With `Cc1cccc(C)c1-c1cncc([C@H](CC(=O)O)NC(=O)[C@H](CC(C)C)n2ccc(C(F)(F)F)cc2=O)c1`, the IC50 is less than 10 nM.

Take `Cc1ccn([C@@H](CC(C)C)C(=O)N[C@@H](CC(=O)O)c2cncc(-c3c(C)cccc3C)c2)c(=O)c1`: the IC50 is less than 10 nM.

In the case of `Cc1cccc(C)c1-c1cncc([C@H](CC(=O)O)NC(=O)[C@H](CC(C)C)n2cc(CN3CC(F)C3)ccc2=O)c1`, the IC50 is less than 10 nM.

As for `Cc1cccc(C)c1-c1cncc([C@H](CC(=O)O)NC(=O)[C@H](CC(C)C)N2CC[C@@H](C(F)(F)F)CC2=O)c1`, the IC50 lay in the range of 10 to 500 nM.

For the compound `CC(C)C[C@@H](C(=O)N[C@@H](CC(=O)O)c1ccc(-c2ccc(F)cc2)cc1)n1cc(CCN(C)C)c(C(F)(F)F)cc1=O`, the IC50 fell in the range of 10 to 500 nM.

Consider `CC(C)C[C@@H](C(=O)N[C@@H](CC(=O)O)c1ccc(-c2ccc(F)cc2)cc1)n1cc(CCN2CC(F)C2)cc(F)c1=O`, for which the IC50 lay in the range of 10 to 500 nM.

As for `CC(C)C[C@@H](C(=O)N[C@@H](CC(=O)O)c1ccc(-c2ccccc2)cc1)n1cc(CCN2CC(F)C2)cc(F)c1=O`, the IC50 lay within 10 to 500 nM.

With `Cc1ccccc1-c1cccc([C@H](CC(=O)O)NC(=O)[C@H](CC(C)C)n2cccc(C)c2=O)c1`, the IC50 lay in the range of 10 to 500 nM.

Take `CC(C)C[C@@H](C(=O)N[C@@H](CC(=O)O)c1ccc(-c2ccccc2)cc1)n1cc(CCN(C)C)c(C(F)(F)F)cc1=O`: the IC50 was in the range of 10 to 500 nM.

As to `Cc1ccc([C@@H](C(=O)N[C@@H](CC(=O)O)c2cncc(-c3c(C)cccc3C)c2)N2CC(C)CCC2=O)cc1` (stereo partly shown), the IC50 lay in the range of 10 to 500 nM.

Regarding `COC[C@@H](C(=O)N[C@@H](CC(=O)O)c1cccc(-c2c(C)cccc2C)c1)n1ccc(C)cc1=O`, the IC50 lay within 10 to 500 nM.

For the compound `Cc1cccc(C)c1-c1cccc([C@H](CC(=O)O)NC(=O)[C@H](CC(C)C)n2cc(CN3CC(F)C3)ccc2=O)c1` [drawing 572], the IC50 was less than 10 nM.

For `Cc1cccc(C)c1-c1cccc([C@H](CC(=O)O)NC(=O)[C@H](CC(C)C)n2cc(CN3CC(F)C3)ccc2=O)c1` [drawing 577], the IC50 was less than 10 nM.

As for `Cc1cccc(C)c1-c1cccc([C@H](CC(=O)O)NC(=O)[C@H](CC(C)C)n2cc(CN3CC(F)C3)ccc2=O)c1` [drawing 585], the IC50 is less than 10 nM.

`Cc1cccc(C)c1-c1cccc([C@H](CC(=O)O)NC(=O)[C@H](CC(C)C)n2cc(CN3CC(F)C3)ccc2=O)c1` [drawing 589]: the IC50 is less than 10 nM.

Consider `Cc1cccc(C)c1-c1cccc([C@H](CC(=O)O)NC(=O)[C@H](CC(C)C)n2cc(CN3CC(F)C3)ccc2=O)c1` [drawing 594], for which the IC50 was less than 10 nM.

For the compound `Cc1cccc(C)c1-c1cccc([C@H](CC(=O)O)NC(=O)[C@H](CC(C)C)n2cc(CN3CC(F)C3)ccc2=O)c1` [drawing 599], the IC50 is less than 10 nM.

Take `Cc1cccc(C)c1-c1cccc([C@H](CC(=O)O)NC(=O)[C@H](CC(C)C)n2cc(CN3CC(F)C3)ccc2=O)c1` [drawing 604]: the IC50 was less than 10 nM.

These data come from patent US11104661B1, “Inhibiting human integrin (α-4) (β-7)” (Morphic Therapeutic, Inc., priority 2019, dated 2021).
